Where a SMILES comes first, the peptide text is derived from it. Bridges are numbered along the chain shown (N, C = ends). [ ]: non-standard residue; d: D form. The star is where a group is joined. Val(Nα-amidino) = CC(C)[C@H](NC(=N)N)C(=O)*; Hyp = O=C(O)[C@@H]1C[C@@H](O)CN1; Pen = CC(C)(S)[C@H](N)C(=O)O; dDab = NCC[C@@H](N)C(=O)O; Orn = NCCC[C@H](N)C(=O)O; Dab = NCC[C@H](N)C(=O)O
What was measured:
Format in all cases: cell-based
[1] = test system: Escherichia coli ATCC 25922; conditions: ATCC 25922
How it was run: (§1)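 The MIC is the lowest peptide concentration, in μg/mL, with no visible growth after 18-20 h incubation at 35 °C. Serial two-fold peptide dilutions in water with 0.002% P-80 final were added to bacteria in cation-adjusted MHII broth, about 5×10^5 CFU/mL, following modified CLSI microdilution.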

[2] = test system: Escherichia coli MCR-1 Af 45; conditions: MCR-1 Af 45
How it was run: as §1

[3] = test system: Klebsiella pneumoniae SSI3010; conditions: SSI3010
How it was run: as §1

[4] = test system: human red blood cells (hRBC); conditions: red cells of human, 1 h, 200 μg/mL
How it was run: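 Peptides at 200 μg/mL incubated 1 h at 37 °C with 20% (v/v) washed human RBC, shaking. Hemolysis from supernatant OD540, expressed as percent of 2.5% Triton X-100 lysis, with PBS as 0%.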

CC[C@H](C)[C@H](NC(=O)[C@@H]1C[C@@H](O)CN1C(=O)[C@@H](NC(=N)N)C(C)C)C(=O)N[C@@H]1C(=O)N[C@@H](Cc2ccc(O)cc2)C(=O)N[C@@H](CO)C(=O)N[C@@H](CC(N)=O)C(=O)N[C@@H](CCCNC(=N)N)C(=O)N[C@@H](CCN)C(=O)N[C@@H]([C@@H](C)O)C(=O)N[C@H](CCN)C(=O)N[C@@H](CCCN)C(=O)N[C@@H](CCN)C(=O)N[C@@H](CCN)C(=O)N[C@H](C(=O)N[C@@H](Cc2ccc(O)cc2)C(=O)O)CSSC1(C)C [Example 126, Gua-Val-Hyp-Ile-Pen-Tyr-Ser-Asn-Arg-Dab-Thr-^DDab-Orn-Dab-Dab-Cys-Tyr] ({Val(Nα-amidino)}-[Hyp]I[Pen]YSNR[Dab]T[dDab][Orn][Dab][Dab]CY-OH; disulfide 3-14)
Escherichia coli ATCC 25922 MIC [1]: 0.125 µg/mL | Escherichia coli MCR-1 Af45 MIC [2]: 0.03125 µg/mL | Klebsiella pneumoniae SSI3010 MIC [3]: 0.125 µg/mL | Hemolysis at 0.2 g/L [4]: <1%

CC[C@H](C)[C@H](NC(=O)[C@@H]1C[C@@H](O)CN1C(=O)[C@@H](NC(=N)N)C(C)C)C(=O)N[C@@H]1C(=O)N[C@@H](Cc2ccc(O)cc2)C(=O)N[C@@H]([C@@H](C)O)C(=O)N[C@@H](CC(N)=O)C(=O)N[C@@H](CCCNC(=N)N)C(=O)N[C@@H](CCN)C(=O)N[C@@H]([C@@H](C)O)C(=O)N[C@H](CCN)C(=O)N[C@@H](CCN)C(=O)N[C@@H](CCN)C(=O)N[C@@H](CO)C(=O)N[C@H](C(=O)N[C@@H](Cc2ccc(O)cc2)C(=O)O)CSSC1(C)C [Example 127, Gua-Val-Hyp-Ile-Pen-Tyr-Thr-Asn-Arg-Dab-Thr-^DDab-Dab-Dab-Ser-Cys-Tyr] ({Val(Nα-amidino)}-[Hyp]I[Pen]YTNR[Dab]T[dDab][Dab][Dab]SCY-OH; disulfide 3-14)
Escherichia coli ATCC 25922 MIC [1]: 0.125 µg/mL | Escherichia coli MCR-1 Af45 MIC [2]: 0.0625 µg/mL | Klebsiella pneumoniae SSI3010 MIC [3]: 0.25 µg/mL | Hemolysis at 0.2 g/L [4]: <1%

CC[C@H](C)[C@H](NC(=O)[C@@H]1C[C@@H](O)CN1C(=O)[C@@H](NC(=N)N)C(C)C)C(=O)N[C@@H]1C(=O)N[C@@H](Cc2ccc(O)cc2)C(=O)N[C@@H]([C@@H](C)O)C(=O)N[C@@H](CC(N)=O)C(=O)N[C@@H](CCCNC(=N)N)C(=O)N[C@@H](CCN)C(=O)N[C@@H]([C@@H](C)O)C(=O)N[C@H](CCN)C(=O)N[C@@H](CCCN)C(=O)N[C@@H](CCN)C(=O)N[C@@H](CO)C(=O)N[C@H](C(=O)N[C@@H](Cc2ccc(O)cc2)C(=O)O)CSSC1(C)C [Example 128, Gua-Val-Hyp-Ile-Pen-Tyr-Thr-Asn-Arg-Dab-Thr-^DDab-Orn-Dab-Ser-Cys-Tyr] ({Val(Nα-amidino)}-[Hyp]I[Pen]YTNR[Dab]T[dDab][Orn][Dab]SCY-OH; disulfide 3-14)
Escherichia coli ATCC 25922 MIC [1]: 0.125 µg/mL | Escherichia coli MCR-1 Af45 MIC [2]: 0.125 µg/mL | Klebsiella pneumoniae SSI3010 MIC [3]: 0.25 µg/mL | Hemolysis at 0.2 g/L [4]: <1%

CC[C@H](C)[C@H](NC(=O)[C@@H]1C[C@@H](O)CN1C(=O)[C@@H](NC(=N)N)C(C)C)C(=O)N[C@@H]1C(=O)N[C@@H](Cc2ccc(O)cc2)C(=O)N[C@@H](CCN)C(=O)N[C@@H](CC(N)=O)C(=O)N[C@@H](CCCNC(=N)N)C(=O)N[C@@H](CCN)C(=O)N[C@@H]([C@@H](C)O)C(=O)N[C@H](CCN)C(=O)N[C@@H](CCN)C(=O)N[C@@H]([C@@H](C)O)C(=O)N[C@@H](CO)C(=O)N[C@H](C(=O)N[C@@H](Cc2ccc(O)cc2)C(=O)O)CSSC1(C)C [Example 129, Gua-Val-Hyp-Ile-Pen-Tyr-Dab-Asn-Arg-Dab-Thr-^DDab-Dab-Thr-Ser-Cys-Tyr] ({Val(Nα-amidino)}-[Hyp]I[Pen]Y[Dab]NR[Dab]T[dDab][Dab]TSCY-OH; disulfide 3-14)
Escherichia coli ATCC 25922 MIC [1]: 0.125 µg/mL | Escherichia coli MCR-1 Af45 MIC [2]: 0.125 µg/mL | Klebsiella pneumoniae SSI3010 MIC [3]: 0.5 µg/mL | Hemolysis at 0.2 g/L [4]: <1%

CC[C@H](C)[C@H](NC(=O)[C@@H]1C[C@@H](O)CN1C(=O)[C@@H](NC(=N)N)C(C)C)C(=O)N[C@@H]1C(=O)N[C@@H](Cc2ccc(O)cc2)C(=O)N[C@@H](CCN)C(=O)N[C@@H](CC(N)=O)C(=O)N[C@@H](CCCNC(=N)N)C(=O)N[C@@H](CCN)C(=O)N[C@@H]([C@@H](C)O)C(=O)N[C@H](CCN)C(=O)N[C@@H](CCCN)C(=O)N[C@@H]([C@@H](C)O)C(=O)N[C@@H](CO)C(=O)N[C@H](C(=O)N[C@@H](Cc2ccc(O)cc2)C(=O)O)CSSC1(C)C [Example 130, Gua-Val-Hyp-Ile-Pen-Tyr-Dab-Asn-Arg-Dab-Thr-^DDab-Orn-Thr-Ser-Cys-Tyr] ({Val(Nα-amidino)}-[Hyp]I[Pen]Y[Dab]NR[Dab]T[dDab][Orn]TSCY-OH; disulfide 3-14)
Escherichia coli ATCC 25922 MIC [1]: 0.125 µg/mL | Escherichia coli MCR-1 Af45 MIC [2]: 0.125 µg/mL | Klebsiella pneumoniae SSI3010 MIC [3]: 0.25 µg/mL | Hemolysis at 0.2 g/L [4]: <1%

CC[C@H](C)[C@H](NC(=O)[C@@H]1C[C@@H](O)CN1C(=O)[C@@H](NC(=N)N)C(C)C)C(=O)N[C@@H]1C(=O)N[C@@H](Cc2ccc(O)cc2)C(=O)N[C@@H]([C@@H](C)O)C(=O)N[C@@H](CC(N)=O)C(=O)N[C@@H](CCCNC(=N)N)C(=O)N[C@@H](CCN)C(=O)N[C@@H]([C@@H](C)O)C(=O)N[C@H](CCN)C(=O)N[C@@H](CCCCN)C(=O)N[C@@H](CCN)C(=O)N[C@@H]([C@@H](C)O)C(=O)N[C@H](C(=O)N[C@@H](Cc2ccc(O)cc2)C(=O)O)CSSC1(C)C [Example 131, Gua-Val-Hyp-I-Pen-Tyr-Thr-Asn-Arg-Dab-Thr-^DDab-Lys-Dab-Thr-Cys-Tyr] ({Val(Nα-amidino)}-[Hyp]I[Pen]YTNR[Dab]T[dDab]K[Dab]TCY-OH; disulfide 3-14)
Escherichia coli ATCC 25922 MIC [1]: 0.25 µg/mL | Escherichia coli MCR-1 Af45 MIC [2]: 0.125 µg/mL | Klebsiella pneumoniae SSI3010 MIC [3]: 0.5 µg/mL | Hemolysis at 0.2 g/L [4]: <1%

CC[C@H](C)[C@H](NC(=O)[C@@H]1C[C@@H](O)CN1C(=O)[C@@H](NC(=N)N)C(C)C)C(=O)N[C@@H]1C(=O)N[C@@H](Cc2ccc(O)cc2)C(=O)N[C@@H]([C@@H](C)O)C(=O)N[C@@H](CC(N)=O)C(=O)N[C@@H](CCCNC(=N)N)C(=O)N[C@@H](CCN)C(=O)N[C@@H]([C@@H](C)O)C(=O)N[C@H](CCN)C(=O)N[C@@H](CCN)C(=O)N[C@@H](CCN)C(=O)N[C@@H]([C@@H](C)O)C(=O)N[C@H](C(=O)N[C@@H](Cc2ccc(O)cc2)C(=O)O)CSSC1(C)C [Example 132, Gua-Val-Hyp-Ile-Pen-Tyr-Thr-Asn-Arg-Dab-Thr-^DDab-Dab-Dab-Thr-Cys-Tyr] ({Val(Nα-amidino)}-[Hyp]I[Pen]YTNR[Dab]T[dDab][Dab][Dab]TCY-OH; disulfide 3-14)
Escherichia coli ATCC 25922 MIC [1]: 0.25 µg/mL | Escherichia coli MCR-1 Af45 MIC [2]: 0.125 µg/mL | Klebsiella pneumoniae SSI3010 MIC [3]: 0.25 µg/mL | Hemolysis at 0.2 g/L [4]: <1%
